The test system of assay [1] is human monocyte cell line (THP-1). Put plainly: Inflammatory cytokine secretion during differentiation of human monocytes into macrophages (PMA, then LPS). It is filed as cell-based. The note with it: FIG. 12; THP-1, PMA 50 ng/ml 48 hours, LPS 0.5 ng/ml four hours; compound 1 alone. The method, then: A human monocyte cell line (THP-1, ATCC® TIB-202™) was treated with 50 ng/ml of phorbol 12-myristate 13-acetate (PMA) for 48 hours and differentiated into macrophages, while being treated with compound 1 in combination with elafibranor as a PPAR agonist, firsocostat as an ACC inhibitor, obeticholic acid as a FXR agonist or cenicriviroc as a CCR2/5 dual antagonist, then replaced with a serum-free medium, and then treated with lipopolysaccharides (LPS; 0.5 ng/ml) for four hours, after which […], tumor necrosis factor α (TNFα; R&D Systems, DY210), and C—C motif chemokine ligand 2 (CCL2; R&D Systems, DY279), which are inflammatory cytokines secreted into the medium, were quantified with a commercially available ELISKA kit, so as to evaluate an effect on monocyte differentiation, and the results thereof are shown in FIG. 12.

Assay [2] relates to mouse model with induced nonalcoholic steatohepatitis. Kind of assay: Blood AST and ALT, NASH mice. The class given is in vivo, C57BL/6J mouse. The note with it: FIG. 11; compound 1 100 mg/kg/day, evogliptin 200 mg/kg/day, alone or in combination; combination compared to both drugs alone. The method, then:
(§1) A six-weeks-old male C57BL/6J mouse was fed with a special feed of high fat, high fructose, and high cholesterol (Research Diet, D09100301) for at least 27 weeks, and thus was induced to develop nonalcoholic steatohepatitis. After that, compound 1 was administered alone or in combination so that a daily dose reached 100 mg/kg/day. As the DPPIV inhibitor, evogliptin at 200 mg/kg/day or sitagliptin at 150 mg/kg/day was administered alone or in combination. As the PPAR agonist, elafibranor was administered alone or in combination so as to reach 30 mg/kg/day. As a method of administration alone or in combination, the above-described compound 1, DPPIV inhibitor, and/or PPAR agonist were prepared as a drug-diet admixture and supplied for 8 to 12 weeks.
The mouse model with induced nonalcoholic steatohepatitis was subjected to autopsy, after which plasma was isolated therefrom, so as to quantify aspartate aminotransferase (AST) and alanine aminotransferase (ALT) by using an automatic blood analyzer (Konelab 20i).

Assay [3] shares this test system. Put plainly: Plasma inflammation and fibrosis-related proteins (ELISA), NASH mice. It is filed as in vivo, C57BL/6J mouse. Conditions: FIG. 10. How it is done: as §1
To evaluate an effect on concentration of inflammation (CCL2, CXCl10, CXCl2, IL2 and TNFα) and fibrosis-related protein (TIMP1) in plasma, a concentration of CCL2, CXCl10, CXCl2, IL2, TNFα (MSD, K15255D-1) and TIMP1 (R&D Systems, MTM100) proteins in the plasma obtained from the mouse model was quantified by using a commercially available ELISA kit.
(In an ELISA, binding on a coated surface is turned into a signal by an enzyme label.)

For assay [4] the test system is unchanged. Put plainly: NAFLD activity score (HE histology) in mouse model with nonalcoholic steatohepatitis. The class given is in vivo, C57BL/6J mouse. The note with it: administered alone, compound 1 100 mg/kg/day, compared to before treatment. How it is done: as §1
For a histological examination, liver tissues were isolated through biopsy and autopsy from the mouse model with induced nonalcoholic steatohepatitis prepared above before and after drug administration and were fixed in 10% formalin so as to prepare a paraffin block and obtain a 2 μm thick tissue section. After that, hematoxylin and eosin (HE) stain was performed by using an automatic stainer (Autostainer XL, Leica) in order to confirm an infiltration of inflammatory cells. A ratio of lipid droplets deposited in the stained liver tissues, a degree of infiltration of inflammatory cells and a degree of cell necrosis were expressed as NAFLD activity scores (NAS), and the results thereof are shown in FIGS. 2 and 3.

In assay [5] the test system is Primary human hepatic stellate cells. Kind of assay: Pro-collagen 1a1 expression in TGFβ1-activated primary human hepatic stellate cells. The class given is cell-based. Conditions: FIG. 13, TGFβ1 5 ng/ml, 18 hours; for protein expression of pro-collagen 1a1 induced by TGFβ1: each drug treated alone. How it is done:
Primary human hepatic stellate cells (ScienCell, #5300) were stabilized for 24 hours, then cultured in a serum-free medium for 24 hours, and then treated with compound 1 in combination with elafibranor as a PPAR agonist, firsocostat as an ACC inhibitor, or obeticholic acid as a FXR agonist together with 5 ng/ml of recombinant […] (TGFβ1), after which the resulting cells were harvested in 18 hours later and an amount of pro-collagen 1a1 in total cell proteins was quantified with a commercialized ELISKA Kit (R&D Systems, DY6220), while an amount of total cell proteins was quantified and corrected by a BCA method, and the results of calculating a concentration response curve of each drug and a concentration (IC30) showing 30% inhibitory activity are shown in FIG. 13.
When compound 1 was treated in combination with the PPAR agonist or the ACC inhibitor, the CI was calculated to be 0.7 and 0.6, which was smaller than 1, thus confirming a synergistic effect. And the CI was calculated to be 1 when treated in combination with the FXR agonist, thus confirming an additive effect.

Assay [6] relates to mouse model with induced nonalcoholic steatohepatitis. Kind of assay: αSMA immunostaining in liver tissues, NASH mice. It is filed as in vivo, C57BL/6J mouse. The note with it: administered alone, compound 1 100 mg/kg/day. The method, then: as §1
To evaluate the effectiveness on fibrosis, an expression of a smooth muscle actin (αSMA) in a liver tissue section was measured through immunostaining so as to compare the ratio of activated stellate cells. After that, a ratio of the area stained by the αSMA antibody in the unit area was calculated through image analysis.

For assay [7] the test system is unchanged. Put plainly: Relative proportion of lipid droplets in liver tissues (image analysis of HE-stained tissue), NASH mice. The class given is in vivo, C57BL/6J mouse. Conditions: for relative area of lipid droplets in liver tissues / ratio of fat (lipid droplets area) in liver tissues: compound 1 100 mg/kg/day, alone or in combination; for relative area of lipid droplets in liver tissues: evogliptin 200 mg/kg/day; for ratio of fat (lipid droplets area) in liver tissues: FIG. 5, elafibranor 30 mg/kg/day. How it is done: as §1
For quantitative comparison of fat accumulation in liver tissues, the HE-stained tissues were subjected to an image analysis to calculate a relative proportion of lipid droplets per unit area, thereby evaluating a medicinal efficacy of co-administration.

For assay [8] the test system is unchanged. Kind of assay: Galectin-3 immunostaining in liver tissues, NASH mice. The class given is in vivo, C57BL/6J mouse. Conditions: administered alone, compound 1 100 mg/kg/day. How it is done: as §1
To compare the degree of infiltration of inflammatory cells in liver tissues, an expression level of galectin-3, an indicator of increased expression in activated macrophages, was measured through immunostaining. After that, a ratio of the area stained by the galectin-3 antibody in the unit area was calculated through image analysis so as to evaluate the medicinal efficacy of ameliorating inflammation according to the co-administration.

Where [9] appears, read: NASH mice, compound 1 alone 100 mg/kg/day.
Where [10] appears, read: compound 1 100 mg/kg/day alone or combined with sitagliptin 150 mg/kg/day.
Setting [11] is: FIG. 2, evogliptin 200 mg/kg/day, drug-diet admixture 8 to 12 weeks.
Where [12] appears, read: FIG. 3, elafibranor 30 mg/kg/day.
Where [13] appears, read: FIG. 8, evogliptin 200 mg/kg/day.
Where [14] appears, read: FIG. 9, elafibranor 30 mg/kg/day.
Where [15] appears, read: FIG. 6, evogliptin 200 mg/kg/day.
[16] abbreviates: FIG. 7, elafibranor 30 mg/kg/day.

Consider four molecules from patent US20230117286A1, “PHARMACEUTICAL COMPOSITION FOR PREVENTION OR TREATMENT OF NONALCOHOLIC STEATOHEPATITIS” (DONG-A ST CO., LTD., priority 2020, published 2023).

Regarding `CCc1cnc(N2CCC(CCCOc3cc(F)c(-c4noc(C(C)C)n4)c(F)c3)CC2)nc1` [compound 1, 3-(4-(3-(1-(5-ethylpyrimidin-2-yl)piperidin-4-yl)propoxy)-2,6-difluorophenyl)-5-isopropyl-1,2,4-oxadiazole], in assay [1], the CCL2 secretion result was “decreased in a concentration-dependent manner”, the IL-1β secretion entry is recorded as “decreased in a concentration-dependent manner” and the TNFα secretion entry is on record as “decreased in a concentration-dependent manner”. Further, in assay [2], the “plasma concentration of ALT” value is on record as “significantly reduced” and the “plasma concentration of AST” value is “significantly reduced”. In assay [3] (setting [9]), the “plasma concentration of CCL2” value is listed as “significantly decreased”, the “plasma concentration of CXCl2” value was “significantly decreased” and the “plasma concentration of CXCl10” value was “significantly decreased”. For the same molecule, in assay [3] (setting [10]), the “plasma IL2” value is given as “tendency of decreasing” and the “plasma TNFα” value was “tendency of decreasing”. In assay [3] (compound 1 alone 100 mg/kg/day), the “plasma TIMP1” value is on record as “significantly decreased”. Also, the “NAFLD activity score (NAS)” value in assay [4] (setting [11]) is recorded as “significantly improved”. In assay [4] (setting [12]), the “NAFLD activity score (NAS)” value is given as “significantly improved”. In addition, the “protein expression of pro-collagen 1a1 induced by TGFβ1” value (“protein expression” for short) in assay [5] is recorded as “inhibited in a concentration-dependent manner”. Besides, in assay [5] (treated alone), the “30% inhibitory concentration (IC30), pro-collagen 1a1” value amounted to 550 nM. Besides, the “expression of αSMA in liver tissues” value in assay [6] (setting [13]) is given as “significantly reduced”. Moreover, the “expression of αSMA in liver tissues” value in assay [6] (setting [14]) is listed as “significantly reduced”. In addition, the “relative area of lipid droplets in liver tissues” value in assay [7] (FIG. 4) is on record as “significantly reduced”. Besides, in assay [7] (FIG. 4, compound 1 alone 100 mg/kg/day), the “size of lipid droplets in liver tissues” value is “decreased”. The “ratio of fat (lipid droplets area) in liver tissues” value in assay [7] is given as “significantly reduced”. Further, the “expression of galectin-3 in liver tissues” value in assay [8] (setting [15]) is “significantly reduced”. Besides, in assay [8] (setting [16]), the “expression of galectin-3 in liver tissues” value is given as “significantly decreased”.

Turning to `CSc1ccc(C(=O)/C=C/c2cc(C)c(OC(C)(C)C(=O)O)c(C)c2)cc1` [elafibranor, reference compound], the “NAFLD activity score (NAS)” value in assay [4] (setting [12]) is “significantly improved”. Besides, the “protein expression” value in assay [5] is “relatively low response”. Further, the “expression of αSMA in liver tissues” value in assay [6] (setting [14]) is “no effect of significantly reducing”. Also, the “ratio of fat (lipid droplets area) in liver tissues” value in assay [7] was “significantly reduced”. Moreover, the “expression of galectin-3 in liver tissues” value in assay [8] (setting [16]) is “no effect of significantly decreasing”.

For `CC(C)(C)OC[C@@H]1C(=O)NCCN1C(=O)C[C@H](N)Cc1cc(F)c(F)cc1F` [evogliptin, reference compound], in assay [2], the “plasma concentration of ALT” value was “significantly reduced” and the “plasma concentration of AST” value is on record as “significantly reduced”. In addition, the “NAFLD activity score (NAS)” value in assay [4] (setting [11]) is recorded as “insignificant”. In addition, the “expression of αSMA in liver tissues” value in assay [6] (setting [13]) is given as “significantly reduced”. Further, the “relative area of lipid droplets in liver tissues” value in assay [7] (FIG. 4) was “tendency of decreasing”. Moreover, the “expression of galectin-3 in liver tissues” value in assay [8] (setting [15]) is listed as “significantly reduced”.

Turning to `COc1ccccc1[C@H](Cn1c(=O)n(C(C)(C)C(=O)O)c(=O)c2c(C)c(-c3ncco3)sc21)OC1CCOCC1` [firsocostat, reference compound], in assay [5], the “protein expression” value is “relatively low response”.
